Series [1] is described as follows: repeated application to normal skin of adults without acne. As to conditions: applied repeatedly to face and arm, 2 adults, several days.
Series [2] can be described thus: penetration of PG into human nails. As to conditions: 30 minutes after application of a thin layer to nail surface, adults.
The test system of series [3] is wart. As to conditions: conventional treatment; cited from earlier work.

Structures are written as SMILES.

As to `CC(O)CO` (stereo not drawn) [100% PG, propylene glycol], the “adverse reactions on normal skin” value in series [1] is “No adverse reactions were observed”. The absorption into nails entry in series [2] is “virtually no PG can be found on the nail surface”.

Take `O=C(O)c1ccccc1O` [high strength salicylic acid, salicylic acid]: the “time for wart removal process” value in series [3] is 6 to 12 weeks.

The values are drawn from US8513225B2, “Composition and method for topical treatment of skin lesions” (Winlind Skincare, LLC, priority 2008, dated 2013).
